The source of these data is EP4678638A1, “NEW E3 UBIQUITIN LIGASE LIGAND, PROTEIN DEGRADATION AGENT AND USE THEREOF” (priority 2023, dated 2024).

The subject of one assay is CCRF-CEM. The assay is described as follows: CCK-8 proliferation, CCRF-CEM. It is filed as cell-based, Human. As to conditions: Homo sapiens, CCRF-CEM; CCK-8; 96 hours; read-out: Inhibitory activity (IC50) on tumor cell proliferation, CCRF-CEM. The gist of the method: (§1)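 CCK-8 viability readout; IC50 from growth-inhibition curve fitting. Cells plated, dosed 24h later with a 10-point series, top 10µM, 5-fold steps. Culture at 37°C, 5% CO2.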

For the next assay, the system named is Kasumi-1. Put plainly: CCK-8 proliferation, Kasumi-1. It is filed as cell-based, Human. As to conditions: Homo sapiens, Kasumi 1, 72 hours, read-out: Inhibitory activity (IC50) on tumor cell proliferation, Kasumi-1. The method, boiled down:
as §1

Another assay has as its system MM.1S. Put plainly: CCK-8 proliferation, MM.1S. As to conditions: Homo sapiens, MM1.S; CCK-8; 72 hours; read-out: Inhibitory activity (IC50) on tumor cell proliferation, MM1S. It is filed as cell-based. The gist of the method:
as §1

Another assay deals with MV-4-11. Put plainly: CCK-8 proliferation, MV-4-11. It is filed as cell-based, Human. Particulars: Homo sapiens, MV4-11; CCK-8; 72 or 96 hours; read-out: Inhibitory activity (IC50) on tumor cell proliferation, MV-4-11. The gist of the method:
as §1

The test system of another assay is H1975. Put plainly: CCK-8 proliferation, NCI-H1975 (H1975). It is filed as cell-based, Human. Particulars: Homo sapiens, NCI-H1975; CCK-8; 96 hours; read-out: Inhibitory activity (IC50) on tumor cell proliferation, H1975. The method, boiled down: as §1
In a further assay the test system is MCF7. The assay is described as follows: CCK-8 proliferation, MCF7 (MCF-7). It is filed as cell-based. Particulars: Homo sapiens, MCF7; CCK-8; read-out: Inhibitory activity (IC50) on tumor cell proliferation, MCF7. The method, boiled down:
as §1

A further assay concerns the target T1, CDK6 (Homo sapiens, UniProt Q00534).
T1 construct: evaluate the effects of the compounds of the present disclosure on the expression of target proteins in cells; endogenous in cells; host or cells: MDA-MB-231
Put plainly: Western blot degradation of CDK6 (MDA-MB-231 Cell). It is filed as cell-based. As to conditions: Table D3. The gist of the method:
(§2)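 Degradation is assessed by immunoblotting lysates of treated cells. Target bands are quantified by grayscale and normalised to an internal control, so degradation rate equals 100% minus % remaining.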

A further assay relates to 22RV1. The assay is described as follows: CCK-8 proliferation, 22RV1. It is filed as cell-based. As to conditions: Homo sapiens, 96 hours, read-out: Inhibitory activity (IC50) on tumor cell proliferation, 22RV1. Here is the method: (§3) The tumor cells used herein were cultured in a cell culture medium listed in table A1 at 37°C in an incubator with 5% CO2. Prior to experimentation, all cell lines used were correctly identified by STR profiling, and tested negative for mycoplasma contamination using a mycoplasma detection kit through routine screenings. Table A1. Tumor cells and cell culture medium used in the present disclosure
(§4) IC50 values of the compounds of the present disclosure (including the compounds in Table 1, and compounds of examples) were measured using the Meilun Cell Counting Kit-8 kit from Dalian Meilun Biotech Co., Ltd. Assay details are as follows: tumor cells were seeded in a 96-well plate at a density listed in Table A2. After 24h, 100 µL of the inoculated cells were treated with 0.5µL of the compounds of the present disclosure (including the compounds in Tables 1 and 2, and compounds of examples) at 10 different successively decreasing concentrations (starting at the highest concentration of 10µM; 5-fold serial dilutions). After the cells were treated with the compounds of the present disclosure for a period of time, the cell viability detection reagent was added to the culture medium for cell viability assessment according to the instructions provided with the CCK-8 kit. […] The growth inhibition of the compounds of the present disclosure on cells was plotted by Prism Graphpad software, and the IC50 values of the compounds of the present disclosure were calculated therefrom. […] Seeding protocol and treatment time for tumor cells

For a further assay, the target named is T2, CDK4 (Homo sapiens, UniProt P11802).
T2 construct: evaluate the effects of the compounds of the present disclosure on the expression of target proteins in cells; endogenous in cells; host or cells: MDA-MB-231
The assay is described as follows: Western blot degradation of CDK4 (MDA-MB-231 Cell). It is filed as cell-based. As to conditions: Table D3. The gist of the method:
as §2
In general terms: In western blotting, separated proteins are transferred to a membrane and probed.

The test system of another assay is SR. Put plainly: CCK-8 proliferation, SR. As to conditions: Homo sapiens, SR; CCK-8; 72 hours; read-out: Inhibitory activity (IC50) on tumor cell proliferation, SR. It is filed as cell-based, Human. The gist of the method:
as §1

A further assay has as its system MM.1R. The assay is described as follows: CCK-8 proliferation, MM.1R. As to conditions: CCK-8, 72 hours, read-out: Inhibitory activity (IC50) on tumor cell proliferation, MM.1R. It is filed as cell-based. Here is the method: as §3, §4

T1 sequence (Q00534 whole entry): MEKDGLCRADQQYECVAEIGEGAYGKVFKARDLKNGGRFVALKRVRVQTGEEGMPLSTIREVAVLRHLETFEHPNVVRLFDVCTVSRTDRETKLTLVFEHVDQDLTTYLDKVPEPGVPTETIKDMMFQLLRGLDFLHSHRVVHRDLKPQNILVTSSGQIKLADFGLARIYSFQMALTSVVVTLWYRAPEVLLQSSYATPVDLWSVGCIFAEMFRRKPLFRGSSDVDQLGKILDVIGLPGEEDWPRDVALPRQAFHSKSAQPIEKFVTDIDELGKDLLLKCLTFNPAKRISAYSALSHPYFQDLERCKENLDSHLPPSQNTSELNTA
T2 sequence (P11802 whole entry): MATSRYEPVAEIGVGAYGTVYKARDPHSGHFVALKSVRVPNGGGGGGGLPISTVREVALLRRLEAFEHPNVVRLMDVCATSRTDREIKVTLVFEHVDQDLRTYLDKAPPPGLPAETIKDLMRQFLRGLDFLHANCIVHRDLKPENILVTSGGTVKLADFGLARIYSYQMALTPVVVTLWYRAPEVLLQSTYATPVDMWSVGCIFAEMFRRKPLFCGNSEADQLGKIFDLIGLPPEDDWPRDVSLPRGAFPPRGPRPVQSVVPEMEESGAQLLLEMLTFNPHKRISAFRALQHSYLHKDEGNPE

As to `Cc1nc2c(F)cc(-c3nc(Nc4ccc(N5CCC(N6CCN(Cc7ccc(N8CCC(=O)NC8=O)cn7)CC6)CC5)cn4)ncc3F)cc2n1C(C)C` [GT-06741, 1-(6-((4-(1-(6-((5-fluoro-4-(4-fluoro-1-isopropyl-2-methyl-1H-benzo[d]imidazol-6-yl)pyrimidin-2-yl)amino)pyridin-3-yl)piperidin-4-yl)piperazin-1-yl)methyl)pyridin-3-yl)dihydropyrimidine-2,4(1H,3H)-dione], the IC50 was 0.05 to 0.1 µM in the assay with CCRF-CEM; 0.1 to 0.5 µM with Kasumi-1; 0.1 to 0.5 µM in the assay on MM.1S; 0.01 to 0.05 µM in the assay on MV-4-11; 0.1 to 0.5 µM with H1975; 0.05 to 0.1 µM in the assay on MCF7. Further, the IC50 in the assay with 22RV1 and in the assay with SR was 0.01 to 0.05 µM throughout. At CDK6, the “Degradation of substrate protein CDK6 (substrate protein remaining %)” value was “B (B is defined as substrate protein remaining % > 80%)”. For the same compound, on CDK4, the “Degradation of substrate protein CDK4 (substrate protein remaining %)” value is reported as “A (A is defined as 0% ≤ substrate protein remaining % ≤ 80%)”.

Take `Cc1nc2c(F)cc(-c3nc(Nc4ccc(N5CCC(N6CCN(Cc7cccc(NC8CCC(=O)NC8=O)c7)CC6)CC5)cn4)ncc3F)cc2n1C(C)C` (stereo not drawn) [GT-06743, 3-((3-((4-(1-(6-((5-fluoro-4-(4-fluoro-1-isopropyl-2-methyl-1H-benzo[d]imidazol-6-yl)pyrimidin-2-yl)amino)pyridin-3-yl)piperidin-4-yl)piperazin-1-yl)methyl)phenyl)amino)pip eridine-2,6-dione]: the IC50 in the assay with CCRF-CEM was in the range of 0.1 to 0.5 µM; in the assay on Kasumi-1 it was 0.1 to 0.5 µM; with MM.1S, 0.1 to 0.5 µM; in the assay on MV-4-11, 0.05 to 0.1 µM; in the assay on H1975, 0.1 to 0.5 µM; in the assay on MCF7 it was 0.1 to 0.5 µM. Moreover, the IC50 fell in the range of 0.01 to 0.05 µM with 22RV1 and 0.05 to 0.1 µM in the assay on SR. Further, at CDK6, the “Degradation of substrate protein CDK6 (substrate protein remaining %)” value is listed as “B (B is defined as substrate protein remaining % > 80%)”. Besides, the “Degradation of substrate protein CDK4 (substrate protein remaining %)” value on CDK4 is recorded as “A (A is defined as 0% ≤ substrate protein remaining % ≤ 80%)”.

Consider `Cc1nc2c(F)cc(-c3nc(Nc4ccc(N5CCC(N(C)Cc6ccc(N7CCC(=O)NC7=O)cc6)CC5)cn4)ncc3F)cc2n1C(C)C` [GT-06838, 1-(4-(((1-(6-((5-fluoro-4-(4-fluoro-1-isopropyl-2-methyl-1H-benzo[d]imidazol-6-yl)pyrimidin-2-yl)amino)pyridin-3-yl)piperidin-4-yl)(methyl)amino)methyl)phenyl)dihydropyrimidine-2,4(1H,3H)-dione], for which the IC50 lay in the range of 0.1 to 0.5 µM in the assay with CCRF-CEM; 0.05 to 0.1 µM with Kasumi-1; 0.1 to 0.5 µM in the assay with MM.1S; 0.01 to 0.05 µM in the assay with MV-4-11; 0.1 to 0.5 µM in the assay on H1975; 0.05 to 0.1 µM in the assay on MCF7. For the same compound, the IC50 with 22RV1 and with SR was 0.01 to 0.05 µM throughout. Besides, on CDK6, the “Degradation of substrate protein CDK6 (substrate protein remaining %)” value was “B (B is defined as substrate protein remaining % > 80%)”. In addition, the “Degradation of substrate protein CDK4 (substrate protein remaining %)” value on CDK4 is reported as “A (A is defined as 0% ≤ substrate protein remaining % ≤ 80%)”.

For the compound `Cc1nc2c(F)cc(-c3nc(Nc4ccc(N5CCC(N(C)Cc6cccc(N7CCC(=O)NC7=O)c6)CC5)cn4)ncc3F)cc2n1C(C)C` [GT-06839, 1-(3-(((1-(6-((5-fluoro-4-(4-fluoro-1-isopropyl-2-methyl-1H-benzo[d]imidazol-6-yl)pyrimidin-2-yl)amino)pyridin-3-yl)piperidin-4-yl)(methyl)amino)methyl)phenyl)dihydropyrimidine-2,4(1H,3H)-dione], the IC50 in the assay on CCRF-CEM lay in the range of 0.1 to 0.5 µM; with Kasumi-1, 0.01 to 0.05 µM; in the assay with MM.1S, 0.1 to 0.5 µM; in the assay on MV-4-11, 0.01 to 0.05 µM; with H1975, 0.1 to 0.5 µM; in the assay with MCF7 it was 0.05 to 0.1 µM. Also, the IC50 in the assay with 22RV1 lay within 0.01 to 0.05 µM; with SR it was 0.05 to 0.1 µM. For the same compound, at CDK6, the “Degradation of substrate protein CDK6 (substrate protein remaining %)” value was “A (A is defined as 0% ≤ substrate protein remaining % ≤ 80%)”. Moreover, at CDK4, the “Degradation of substrate protein CDK4 (substrate protein remaining %)” value was “A (A is defined as 0% ≤ substrate protein remaining % ≤ 80%)”.

Consider `Cc1nc2c(F)cc(-c3nc(Nc4ccc(N5CCC(N(C)Cc6ccc(N7CCC(=O)NC7=O)cn6)CC5)cn4)ncc3F)cc2n1C(C)C` [GT-06840, 1-(6-(((1-(6-((5-fluoro-4-(4-fluoro-1-isopropyl-2-methyl-1H-benzo[d]imidazol-6-yl)pyrimidin-2-yl)amino)pyridin-3-yl)piperidin-4-yl)(methyl)amino)methyl)pyridin-3-yl)dihydropyrimidine-2,4(1H,3H)-dione], for which the IC50 lay in the range of 0.1 to 0.5 µM with CCRF-CEM; 0.1 to 0.5 µM in the assay on Kasumi-1; 0.1 to 0.5 µM in the assay with MM.1S; 0.05 to 0.1 µM in the assay on MV-4-11; 0.1 to 0.5 µM in the assay on H1975; 0.001 to 0.01 µM with MCF7. Moreover, the IC50 in the assay on 22RV1 and with SR was 0.05 to 0.1 µM in each case. For the same compound, the “Degradation of substrate protein CDK6 (substrate protein remaining %)” value on CDK6 is on record as “B (B is defined as substrate protein remaining % > 80%)”. Besides, on CDK4, the “Degradation of substrate protein CDK4 (substrate protein remaining %)” value is recorded as “A (A is defined as 0% ≤ substrate protein remaining % ≤ 80%)”.

As for `Cc1nc2c(F)cc(-c3nc(Nc4ccc(N5CCC(N(C)Cc6ccc(N7CCC(=O)NC7=O)nc6)CC5)cn4)ncc3F)cc2n1C(C)C` [GT-06841, 1-(5-(((1-(6-((5-fluoro-4-(4-fluoro-1-isopropyl-2-methyl-1H-benzo[d]imidazol-6-yl)pyrimidin-2-yl)amino)pyridin-3-yl)piperidin-4-yl)(methyl)amino)methyl)pyridin-2-yl)dihydropyrimidine-2,4(1H,3H)-dione], the IC50 in the assay on CCRF-CEM was 0.1 to 0.5 µM; in the assay with Kasumi-1, 0.05 to 0.1 µM; in the assay with MM.1S it was 0.1 to 0.5 µM; in the assay on MV-4-11, 0.01 to 0.05 µM; in the assay with H1975 it was 0.1 to 0.5 µM; in the assay with MCF7, 0.05 to 0.1 µM. Moreover, the IC50 in the assay with 22RV1 and in the assay with SR was 0.01 to 0.05 µM in each case. Besides, at CDK6, the “Degradation of substrate protein CDK6 (substrate protein remaining %)” value is “A (A is defined as 0% ≤ substrate protein remaining % ≤ 80%)”. The “Degradation of substrate protein CDK4 (substrate protein remaining %)” value at CDK4 is “A (A is defined as 0% ≤ substrate protein remaining % ≤ 80%)”.

As to `CC(=O)c1c(C)c2cnc(Nc3ccc(N4CCNCC4)cn3)nc2n(C2CCCC2)c1=O` [Palbociclib, reference compound], the IC50 was over 10 µM in the assay with MM.1R; 1 to 5 µM in the assay on CCRF-CEM; 1 to 5 µM with Kasumi-1; over 10 µM in the assay on MM.1S; 0.1 to 0.5 µM with MV-4-11; 5 to 10 µM with H1975. The IC50 is 1 to 5 µM in the assay with MCF7, 0.1 to 0.5 µM with 22RV1 and 1 to 5 µM in the assay with SR.

`CN(C)C(=O)c1cc2cnc(Nc3ccc(N4CCNCC4)cn3)nc2n1C1CCCC1` [Ribociclib, reference compound]: the IC50 with MM.1R was over 10 µM; with CCRF-CEM it was over 10 µM; in the assay with Kasumi-1, 1 to 5 µM; in the assay with MM.1S it was 5 to 10 µM; with MV-4-11, 5 to 10 µM; in the assay on H1975, over 10 µM. In addition, the IC50 in the assay on MCF7 was in the range of 5 to 10 µM; in the assay on 22RV1 it was 1 to 5 µM; with SR, 5 to 10 µM.
